The test system of data set [1] is Vero monkey kidney cells.
In data set [2] the test system is human liver (C3A) cells.

The structures appear in SMILES notation.

Take `CC(=O)OCC1=CCc2c(cc(O)c3c(=O)cc(C)oc23)OC1` [Compound 2, 8,11-Dihydro-5-hydroxy-12-hydroxymethyl-2-methyl-4H-pyrano[2,3-g][1]benzoxepin-4-one 12-O-acetate]: the Cytotoxicity LC50 in data set [1] and in data set [2] was over 200 µg/mL throughout.
